In patent US6716810B1, “Composition and method for regulation of body weight and associated conditions” (Eleanor Roosevelt Institute, priority 1998, dated 2004):
“Also recorded” adds a separate entry of the source.

Assays:
Format in all cases: in vivo, mouse
ob/ob mutant mice [1] = assay: Core temperature of ob/ob mutants exposed to 4° C. after MSH analog (Example 5); details: 7 micrograms; 5 hours without food, then 4° C. for 65 minutes; v. vehicle
Experimental: In 1977, the decreased ability of ob/ob mutants to maintain body temperature at 4° C. was noted. This preceded the onset of obesity in these mice. In view of the evidence that MSH regulates adipocyte metabolism, the present inventors hypothesized that the low levels of circulating MSH in leptin deficient (ob/ob) mutants was responsible for the impaired thermal regulation. To test this, ob/ob mutants were injected with 7 micrograms of MSH analog or vehicle only as described above. The mice were left without food for 5 hours and then exposed to 4° C. for 65 minutes. Their core temperatures were measured periodically by transfer to a coldroom (4° C.) where core temperatures were measured using a digital thermometer fitted with a rectal probe (Atkins Technical Inc., Gainesville, Fla.). […] As the mice had no opportunity to eat between injection of the MSH analog and the cold challenge, food intake cannot be responsible for the altered thermal regulation.

wildtype mice = assay: Weight change and food intake under standard diet, MSH analog or high fat diet, wildtype mice (Example 3); details: 1 or 2 μg i.p. once daily
Experimental: (§1) P values were determined by ANOVA. If the major component of weight regulation through the melanocortinergic pathway was the regulation of feeding behavior, the observed changes in body weight in is POMC null mutant mice should be paralleled by a similar pattern in food uptake. This, however, was not observed (FIGS. 5B and 5D and Table 1).

ob/ob mutant mice [2] = assay: Weight gain and food intake in ob/ob mutants treated with leptin, MSH analog or both (Example 5)
Experimental: Leptin deficient (ob/ob) mutants show both hyperphagia and “increased metabolic efficiency” as witnessed by their ability to gain weight even when pair-fed with normal congenic controls. To determine the effects of leptin and MSH on food intake and weight gain, four sets of ob/ob mutants were treated with leptin, an MSH analog, both together, or vehicle alone. The MSH analog [Ac-Cys^4, D-Phe^7, Cys^10]α-MSH (4-13) was purchased from Peninsula Laboratories (Belmont, Calif.). Mice were treated with daily injections of 7 micrograms of each, both or neither.

wildtype female mice = assay: Daily intraperitoneal MSH analog in wildtype littermates: body weight, food intake (Example 2); details: for weight loss in wildtype littermates: 1 microgram i.p. daily, 16-day treatment
Experimental: (§2) To test initially for the effect of peripheral melanocortins on weight change, we selected the stable agonist [Ac-Cys^4, D-Phe^7, Cys^10]α-MSH (4-13) (described in Cody et al., 1985, J. Med. Chem. 28, 583-588; incorporated herein by reference in its entirety). Briefly, [Ac-Cys^4, D-Phe^7, Cys^10]α-MSH (4-13) amide, having the cysteines connected by a disulfide bridge, was obtained from Peninsula Laboratories, CA. Lyophilized powder was dissolved in water at 1 mg/ml, which was diluted in PBS to 10 μg/mL. During the experiments, mice were maintained on a normal 12 h/12 h light/dark cycle with food and water ad libitum. Mice were fed standard laboratory rodent diet (#5001).
(§3) In order to see whether the α-MSH analog has an effect on food intake, we compared weight change and food intake in these mice for one week (see bars in FIGS. 4A and 4B) under MSH analog treatment and after MSH analog treatment was stopped (FIGS. 4C and 4D). During one week under MSH analog treatment mutant mice lost 0.5 g, while wildtype littermates gained 0.3 g; the food intake during this time was equivalent in both groups (20.7 g in wildtypes, and 22.7 g in mutants).

obese lep^ob/ob mice = assay: Weight change in obese lep ob/ob mice treated with leptin, α-MSH analog or both (Example 4); details: 3 μg of each compound i.p. once daily; mice aged 2 months
Experimental: To assess a more general effect of peripheral melanocortin on adipocytes, another genetic form of obesity, in lep^ob/ob mice, was treated with the α-MSH analog. In this experiment, the mice received leptin or the α-MSH analog alone, and in combination.
Briefly, obese lep^ob/ob mice at age 2 months (2 per group) received daily either: (1) 3 μg of α-MSH analog (described in Examples 2 and 3 above); (2) 3 μg of recombinant mouse leptin; (3) 3 μg of α-MSH analog and 3 μg of recombinant mouse leptin in combination; or (4) saline. The compounds were delivered intraperitoneally once daily, 1-2 hours before the onset of darkness.

[3] = system: POMC homozygous mutant female mice; assay: Daily intraperitoneal MSH analog in POMC homozygous mutant mice: body weight, food intake, coat pigmentation (Example 2); details: for weight loss, % of excess weight by 2 weeks: p<0.05 at day 16
Experimental: as §2, §3
An effect of MSH could also be seen on coat pigmentation. […] Yellow coat pigmentation gradually reappeared after MSH treatment was terminated (data not shown).

POMC null mutant mice = assay: Weight change and food intake under standard diet, MSH analog or high fat diet, POMC null mutant mice (Example 3); details: 1 or 2 μg i.p. once daily
Experimental: as §1

[4] = system: ob/ob mutant mice (C57BL/6J-Lep^ob); assay: Circulating MSH levels by RIA in ob/ob mutants after leptin (Example 5); details: leptin 7 microgram/day i.p.; two hours after the tenth daily injection
Experimental: To test the inductive ability of leptin on circulating MSH levels, ob/ob mutants (ob/ob mutant mice (C57BL/6J-Lep^ob) and congenic controls were purchased from the Jackson Laboratory, Bar Harbor, Me.) were treated with leptin (7 microgram/day) or with vehicle alone (Murine recombinant leptin was kindly provided by Dr. A. F Parlow through the National Hormone and Pituitary Program (NHPP); hormones were diluted to 70 micrograms per milliliter in PBS; mice were injected intraperitoneally with 0.1 mL). Two hours after the tenth daily injection, blood samples were drawn from the retro-orbital sinus and analyzed for MSH levels by RIA following the manufacturer's instructions (Peninsula Laboratories, Belmont, Calif.).

[5] = daily injections of 7 micrograms

[Ac-Cys^4, D-Phe^7, Cys^10]α-MSH (4-13) amide [MSH analog]
core temperature / thermal homeostasis at 4° C. (ob/ob mutant mice [1]): maintained their core temperature much better; also recorded: increases thermal homeostasis | food intake under MSH analog (wildtype mice): decreases food intake | weight regulation under MSH analog (wildtype mice): maintaining their body weight constant | effect of MSH analog added to leptin on weight (ob/ob mutant mice [2]; 7 micrograms of each, daily): inability of peripheral MSH analog to supplement the weight reducing effect | effect on weight gain compared with effect on food intake (ob/ob mutant mice [2]; [5]): greater on weight gain than on food intake | weight gain (ob/ob mutant mice [2]; [5]): effectively decreased weight gain; also recorded: decreases weight gain | weight loss in wildtype littermates (wildtype female mice; listed as MSH-agonist): no significant weight loss | weight loss in wildtype littermates (wildtype female mice; listed as α-MSH agonist): did not lose significant weight | weight gained during one week under MSH analog treatment (wildtype female mice; second week of treatment, wildtype littermates): 0.3 g | food intake during one week under MSH analog treatment (wildtype female mice; second week of treatment, wildtypes): 20.7 g | weight gain in one week after MSH analog treatment had been stopped for two weeks (wildtype female mice; third week after termination, wildtype littermates): 0.3 g | food intake in one week after MSH analog treatment had been stopped for two weeks (wildtype female mice; third week after termination, wildtypes): 24.2 g | total weight change over a period of 10 days compared to untreated controls (obese lep^ob/ob mice): slowed weight gain by almost half | weight loss, % of excess weight by 2 weeks ([3]; 1 microgram (~1 nmol) i.p. daily, mutant female mice, listed as MSH-agonist): 46 % of excess weight | weight loss, % of excess weight by 2 weeks ([3]; 1 microgram (~1 nmol) i.p. daily, mutant female mice, listed as α-MSH agonist): over 40 % of excess weight | weight loss, % of excess weight within one week ([3]; 1 microgram (~1 nmol) i.p. daily, mutant female mice, p<0.1 at day 8): 38 % of excess weight | time until mutant mice started to gain weight after MSH injections were stopped ([3]; after 16-day treatment): about 10 days | weight regain after MSH injections were stopped ([3]; another two weeks after onset of regain): reached close to their pretreatment weight | weight lost during one week under MSH analog treatment ([3]; second week of treatment, mutant mice): 0.5 g | food intake during one week under MSH analog treatment ([3]; second week of treatment, mutants): 22.7 g | weight gained in one week after MSH analog treatment had been stopped for two weeks ([3]; third week after termination, mutant mice): 1.7 g | food intake in one week after MSH analog treatment had been stopped for two weeks ([3]; third week after termination, mutants): 35.7 g | excess food intake of mutants over wildtypes after treatment stop ([3]; third week after termination, p<0.005): 11.5 g | coat pigmentation ([3]; treated for two weeks): lost their yellowish tinge | food intake under MSH analog (POMC null mutant mice): decreases food intake | weight change under MSH analog (POMC null mutant mice): lose excess weight

B1: leptin: recombinant mouse leptin, product of the ob gene, provided through the National Hormone and Pituitary Program (protein, UniProt P41160 22-167, looked up)
Leptin: VPIQKVQDDTKTLIKTIVTRINDISHTQSVSAKQRVTGLDFIPGLHPILSLSKMDQTLAVYQQVLTSLPSQNVLQIANDLENLRDLLHLLAFSKSCSLPQTSGLQKPESLDGVLEASLYSTEVVALSRLQGSLQDILQQLDVSPEC
weight gain (ob/ob mutant mice [2]; [5]): effectively decreased weight gain | total weight change over a period of 10 days compared to untreated controls (obese lep^ob/ob mice): little effect on preventing further weight gain | circulating MSH levels [4]: approached those found in normal control mice; also recorded: induces almost normal levels of circulating MSH
